Results published in ChEMBL document CHEMBL1201862, “PubChem BioAssay data set” (2004).
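Five compound concentrations were applied to cells in 96-well plates for 48 hours; endpoints were derived by simple linear interpolation of the resulting dose-response curve. GI50: concentration for 50% inhibition of growth.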 The source made the active and inactive calls. No stated cut-off is given here; in the data, active = GI50 up to about 1.1 µM and inactive = higher.

Tests used:
Test in all cases: inhibition of tumour cell growth, NCI panel, 48 h
[1] = system: Hs-578T
[2] = system: KM12
[3] = system: EKVX
[4] = system: UACC-257
[5] = system: IGROV-1
[6] = system: HCT-116
[7] = system: 786-0
[8] = system: SF-539
[9] = system: T47D
[10] = system: HL-60
[11] = system: U-251
[12] = system: HOP-62
[13] = system: NCI-H522
[14] = system: OVCAR-4
[15] = system: M14
[16] = system: UO-31
[17] = system: LOX IMVI
[18] = system: HCT-15
[19] = system: OVCAR-5
[20] = system: SR
[21] = system: SW-620
[22] = system: TK-10
[23] = system: SNB-19
[24] = system: SK-OV-3
[25] = system: HOP-92
[26] = system: NCI-H460
[27] = system: K562
[28] = system: HT-29
[29] = system: SK-MEL-2
[30] = system: SN12C
[31] = system: CAKI-1
[32] = system: MDA-MB-435
[33] = system: OVCAR-8
[34] = system: HCC 2998
[35] = system: NCI/ADR-RES
[36] = system: Malme-3M
[37] = system: A549
[38] = system: A498
[39] = system: SK-MEL-28
[40] = system: MOLT-4
[41] = system: RXF 393
[42] = system: NCI-H226
[43] = system: UACC-62
[44] = system: CCRF-CEM
[45] = system: SK-MEL-5
[46] = system: DU-145
[47] = system: BT-549
[48] = system: COLO 205
[49] = system: OVCAR-3
[50] = system: NCI-H23
[51] = system: SF-268
[52] = system: RPMI-8226
[53] = system: ACHN
[54] = system: PC-3
[55] = system: MDA-MB-231
[56] = system: SF-295
[57] = system: MCF7
[58] = system: SNB-75

[O-][n+]1ccccc1Sc1nc(Sc2cccc[n+]2[O-])nc(Sc2cccc[n+]2[O-])n1 was tested, and the GI50 [1] was 2.08 µM (inactive), the GI50 [2] was 1.88 µM (inactive) and the GI50 [3] was 2.34 µM (inactive). The GI50 [4] was 2.4 µM (inactive), the GI50 [5] was 0.54 µM (active) and the GI50 [6] was 1.25 µM (inactive). The GI50 [7] was 1.27 µM (inactive), the GI50 [8] was 2.06 µM (inactive) and the GI50 [9] was 2.03 µM (inactive). For the same compound, the GI50 [10] was 0.1 µM (active), the GI50 [11] was 1.69 µM (inactive) and the GI50 [12] was 2.98 µM (inactive). The GI50 [13] was 0.745 µM (active), the GI50 [14] was 1.59 µM (inactive) and the GI50 [15] was 1.26 µM (inactive). For the same compound, the GI50 [16] was 1.77 µM (inactive), the GI50 [17] was 0.92 µM (active) and the GI50 [18] was 1.38 µM. For the same compound, the GI50 [19] was 1.7 µM (inactive), the GI50 [20] was 0.171 µM (active) and the GI50 [21] was 0.248 µM (active). For the same compound, the GI50 [22] was 1.76 µM (inactive), the GI50 [23] was 13 µM (inactive) and the GI50 [24] was 7.24 µM (inactive). The GI50 [25] was 1.28 µM (inactive), the GI50 [26] was 1.88 µM (inactive) and the GI50 [27] was 0.279 µM (active). The GI50 [28] was 1.19 µM (inactive), the GI50 [29] was 1.8 µM (inactive) and the GI50 [30] was 1.81 µM (inactive). The GI50 [31] was 0.9 µM (active), the GI50 [32] was 1.07 µM (active) and the GI50 [33] was 0.569 µM (active). The GI50 [34] was 1.51 µM (inactive), the GI50 [35] was 2.92 µM (inactive) and the GI50 [36] was 1.95 µM (inactive). For the same compound, the GI50 [37] was 2.99 µM (inactive), the GI50 [38] was 2.82 µM (inactive) and the GI50 [39] was 0.697 µM (active). The GI50 [40] was 0.189 µM (active), the GI50 [41] was 0.444 µM (active) and the GI50 [42] was 2.42 µM (inactive). For the same compound, the GI50 [43] was 1.22 µM (inactive), the GI50 [44] was 0.198 µM (active) and the GI50 [45] was 1.31 µM (inactive). The GI50 [46] was 3.27 µM (inactive), the GI50 [47] was 1.61 µM (inactive) and the GI50 [48] was 0.386 µM (active). The GI50 [49] was 1.58 µM (inactive), the GI50 [50] was 1.36 µM (inactive) and the GI50 [51] was 2.99 µM (inactive). The GI50 [52] was 0.385 µM (active), the GI50 [53] was 1.54 µM (inactive) and the GI50 [54] was 0.726 µM (active). The GI50 [55] was 1.38 µM (inactive), the GI50 [56] was 3.14 µM (inactive) and the GI50 [57] was 0.778 µM (active). The GI50 [58] was 4.2 µM (inactive).
With Clc1ccc(Cc2nc3cc4ccccc4cc3[nH]2)cc1Cl the GI50 [1] was 21.3 µM (inactive), the GI50 [2] was 16.4 µM (inactive) and the GI50 [3] was 29.2 µM (inactive). The GI50 [4] was 18.1 µM (inactive), the GI50 [5] was 3.01 µM (inactive) and the GI50 [6] was 20.1 µM (inactive). The GI50 [7] was 27 µM (inactive), the GI50 [8] was 15.5 µM (inactive) and the GI50 [9] was 12.2 µM (inactive). The GI50 [10] was 16.3 µM (inactive), the GI50 [11] was 15.5 µM (inactive) and the GI50 [12] was 26.1 µM (inactive). For the same compound, the GI50 [13] was 12.7 µM (inactive), the GI50 [14] was 13 µM (inactive) and the GI50 [15] was 26.2 µM (inactive). For the same compound, the GI50 [16] was 14 µM (inactive), the GI50 [17] was 14.5 µM (inactive) and the GI50 [18] was 15.2 µM. For the same compound, the GI50 [19] was 32.5 µM (inactive), the GI50 [20] was 7.6 µM (inactive) and the GI50 [21] was 17.4 µM (inactive). The GI50 [22] was 19.4 µM (inactive), the GI50 [23] was 18.7 µM (inactive) and the GI50 [25] was 11.7 µM (inactive). The GI50 [26] was 6.97 µM (inactive), the GI50 [27] was 6.15 µM (inactive) and the GI50 [28] was 10.2 µM (inactive). For the same compound, the GI50 [29] was 17.1 µM (inactive), the GI50 [30] was 24 µM (inactive) and the GI50 [31] was 18.3 µM (inactive). The GI50 [32] was 15 µM (inactive), the GI50 [33] was 20.1 µM (inactive) and the GI50 [34] was 18.5 µM (inactive). For the same compound, the GI50 [35] was 28.7 µM (inactive), the GI50 [36] was 16 µM (inactive) and the GI50 [37] was 16.4 µM (inactive). The GI50 [38] was 13.6 µM (inactive), the GI50 [39] was 12.6 µM (inactive) and the GI50 [40] was 2.37 µM (inactive). The GI50 [41] was 16.4 µM (inactive), the GI50 [42] was 25.2 µM (inactive) and the GI50 [43] was 14.2 µM (inactive). The GI50 [44] was 37.9 µM (inactive), the GI50 [45] was 3.93 µM (inactive) and the GI50 [46] was 20.7 µM (inactive). For the same compound, the GI50 [47] was 16 µM (inactive), the GI50 [48] was 18.5 µM (inactive) and the GI50 [49] was 22.8 µM (inactive). The GI50 [50] was 27.3 µM (inactive), the GI50 [51] was 15.9 µM (inactive) and the GI50 [52] was 31.3 µM (inactive). For the same compound, the GI50 [53] was 30.8 µM (inactive), the GI50 [54] was 13 µM (inactive) and the GI50 [55] was 16.6 µM (inactive). The GI50 [57] was 16.2 µM (inactive) and the GI50 [58] was 17.3 µM (inactive).
